Laboratory results published in patent US7429596B2, “1H-pyrrolo [2,3-D] pyrimidine derivatives and methods of use thereof” (The Regents of the University of California, priority 2003, dated 2008).
Substitutions are numbered along the chain they refer to. Where “and” joins values, the source holds several entries; their conditions need not be identical. Equal entries are not always repeated. Entries after “also recorded” stand apart in the source; their conditions may differ. Where two headings read alike, the source gives them in different places.

Key:
[1] = biological target: c-Fyn-wt (Homo sapiens, UniProt P06241); experiment: Inhibition of Src family kinase Fyn; type: biochemical
Sequence of c-Fyn-wt (P06241 whole entry): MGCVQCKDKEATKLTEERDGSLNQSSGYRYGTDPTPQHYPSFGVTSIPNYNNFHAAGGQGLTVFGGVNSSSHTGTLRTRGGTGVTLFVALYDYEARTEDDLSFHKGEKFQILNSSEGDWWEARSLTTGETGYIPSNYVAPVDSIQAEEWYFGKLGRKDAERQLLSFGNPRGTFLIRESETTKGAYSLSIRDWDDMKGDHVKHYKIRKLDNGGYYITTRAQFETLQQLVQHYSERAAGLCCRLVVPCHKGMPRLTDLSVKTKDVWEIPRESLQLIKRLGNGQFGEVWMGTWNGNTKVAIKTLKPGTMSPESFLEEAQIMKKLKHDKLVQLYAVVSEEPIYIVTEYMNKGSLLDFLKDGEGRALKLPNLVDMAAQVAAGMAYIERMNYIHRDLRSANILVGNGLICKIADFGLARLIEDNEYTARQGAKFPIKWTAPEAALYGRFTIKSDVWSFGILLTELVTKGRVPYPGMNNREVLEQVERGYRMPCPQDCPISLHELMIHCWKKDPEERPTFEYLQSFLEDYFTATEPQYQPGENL
Experimental: Experiments were performed to determine whether AB129 was capable of inhibiting the Src family kinase, Fyn. […] Such a compound would serve as a test compound for determining the importance of dual inhibition of CBR1 and protein kinases.

[2] = biological target: T1, carbonyl reductase 1 (CBR1) (Homo sapiens, UniProt P16152); experiment: CBR1 inhibition: menadione reduction, NADPH absorbance at 340 nm; type: biochemical; parameters: 6-His (N); made in house; host or cells: E. coli
T1 sequence (P16152 1-277): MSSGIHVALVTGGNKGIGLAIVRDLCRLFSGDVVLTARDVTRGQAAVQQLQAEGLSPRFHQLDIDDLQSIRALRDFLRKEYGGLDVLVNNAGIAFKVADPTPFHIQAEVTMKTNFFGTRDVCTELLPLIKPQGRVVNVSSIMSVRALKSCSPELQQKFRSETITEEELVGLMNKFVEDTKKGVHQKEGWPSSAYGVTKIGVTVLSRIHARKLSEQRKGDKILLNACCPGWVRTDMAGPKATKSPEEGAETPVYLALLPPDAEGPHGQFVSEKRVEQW
Experimental: CBR was expressed in E. coli and purified using glutathione beads; CBR has a naturally occurring. glutathione binding site. An N-terminal 6-His tagged protein was prepared to allow purification by metal affinity. Our CBR assay employs the synthetic substrate Menadione (2-methyl-1,4-naphthoquinone). Reaction progress is monitored by the decrease in NADPH-absorbance at 340 nm. Saturating concentrations of Menadione with variable concentrations of NADPH are employed in order to ascertain KI values.

[3] = system: A549 lung carcinoma cells; experiment: A549 cell killing / viability
[4] = biological target: T1, carbonyl reductase 1 (CBR1); experiment: Production of daunorubicinol from daunorubicin
Text: To independently confirm the ability of AB129 to inhibit CBR1 in A549 cells, an assay based on the role of CBR1 in attenuating the anti-cancer action of daunorubicin was employed.

[5] = i.v. serum half-life; type: in vivo; settings: iv, read-out: i.v. serum half-life (t1/2)
Text: The data obtained from these cell culture assays and animal studies can be used in formulating a dosage range that is not toxic for use in human. The dosage of such compounds lies within a range of circulating concentrations that include the ED50 with little or no toxicity. The dosage can vary within this range depending upon the dosage form employed and the route of administration utilized. The exact formulation, route of administration and dosage can be chosen by the individual physician in view of the patient's condition. (See, e.g., Fingl et al., 1975, In: The Pharmacological Basis of Therapeutics, Ch. 1, p. 1). One of the advantages, among others, of using the AB129-type compounds and analogs described herein to treat disease, e.g., lung cancer or colon cancer is their lack of toxicity.

[6] = biological target: T2, N90V mutant of carbonyl reductase 1 (CBR1) (Homo sapiens, UniProt P16152, N90V); experiment: Sensitivity of N90V mutant CBR1 to inhibitor; type: biochemical; settings: FIG. 30
T2 construct: made in house
T2 sequence (P16152 1-277 N90V): T1 sequence (P16152 1-277) with N90V
Text: To understand the basis for the potency of AB129 against CBR1, a computer algorithm was used for molecular docking of AB129 to an available crystal structure of porcine CBR1 to produce a model of the bound structure of AB129 (FIG. 24). This modeled co-structure was experimentally validated by site-directed mutagenesis of multiple amino acids in the proposed AB129 binding pocket (including a conserved Asn residue common to all SDR family members—FIGS. 25-27) and identification of AB129 resistant mutants of CBR1 (FIGS. 28-30). This binding model also potentially explains the importance of the hydroxyl moiety attached to the phenyl ring of AB129, as being critical for a H-bonding interaction with an active site Asn.

[7] = system: A549 lung carcinoma cells; settings: human, 2 days, 0.4 μM
[8] = system: A549 lung carcinoma cells; experiment: Cell cycle of A549 cells
[9] = system: adenocarcinoma cells; experiment: Killing of adenocarcinoma cells in culture; type: cell-based
Text: In order to verify this assumption, the pyrazolopyrimidine RB2 and the analogous pyrrolopyrimidine RB5 were synthesized (FIG. 37). These compounds employ an R^2 isopropyl as opposed to the AB129 t-butyl because the Mitsunobu reaction used for RB5 synthesis is not amenable to t-butyl alkylation.

[10] = biological target: 11β-HSD1 (Homo sapiens, UniProt P28845); settings: Diederich et al. 2000; cited from earlier work
Sequence of 11β-HSD1 (P28845 whole entry): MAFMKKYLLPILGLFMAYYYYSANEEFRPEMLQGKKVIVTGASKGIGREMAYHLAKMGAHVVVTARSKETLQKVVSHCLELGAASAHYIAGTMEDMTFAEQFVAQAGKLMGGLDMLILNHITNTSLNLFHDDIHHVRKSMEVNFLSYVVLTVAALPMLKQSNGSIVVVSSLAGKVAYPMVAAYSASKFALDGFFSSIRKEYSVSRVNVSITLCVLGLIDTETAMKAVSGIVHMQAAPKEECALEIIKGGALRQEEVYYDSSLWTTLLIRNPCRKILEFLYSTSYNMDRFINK

[11] = Table 1, read-out: IC50 anti-c-Fyn-wt
[12] = Table 1, read-out: IC50 anti-hCBR1

| Structure (SMILES) | IC50 [1, 11] | IC50 [2, 12] | IC50 ([2]; read-out: anti-CBR IC50) | further results |
| --- | --- | --- | --- | --- |
| CC(C)(C)n1nc(-c2ccccc2)c2c(N)ncnc21 [AB001] | 110 nM | > 20000 nM |  |  |
| CC(C)(C)n1nc(-c2cccc(N)c2)c2c(N)ncnc21 [AB060] | 50 nM | > 20000 nM |  | cell killing in human lung cancer cell line A549 [3]: mild to severe cell killing |
| CC(C)(C)n1nc(-c2ccc(N)cc2)c2c(N)ncnc21 [AB061] | 50 nM | > 20000 nM |  | cell killing in human lung cancer cell line A549 [3]: mild to severe cell killing |
| CC(C)(C)n1nc(-c2cccc(O)c2)c2c(N)ncnc21 [AB129] | 8 nM | 790 nM |  | IC50 ([1]; read-out: anti-Fyn IC50): 10 nM; production of cardiotoxic metabolite daunorubicinol from daunorubicin [4]: able to block production; half-life [5]: 2 to 2.5 h; sensitivity of N90V mutant CBR1 versus wild type CBR1 [6]: less sensitive; loss of viability of A549 cells [7]: 15%; A549 cells in G2/M phase [8]: approximately 12%; cell killing in human lung cancer cell line A549 [3]: mild to severe cell killing; also recorded: most potent A549 cell killing response; IC50 ([2]; FIG. 5, read-out: IC50, CBR1 catalyzed reduction of menadione by NADPH): ~5000 nM; Ki ([2]; NADPH competitive): 400 nM and 300 to 400 nM; mode of inhibition of CBR1 ([2]; with respect to NADPH): pure NADPH competitive inhibitor |
| CC(C)(C)n1nc(-c2ccc(F)c(O)c2)c2c(N)ncnc21 [MS01] | 3 nM | 1000 nM |  |  |
| CCOCCn1nc(-c2ccccc2)c2c(N)ncnc21 [MT13] | 5000 nM | > 20000 nM |  |  |
| CCOCCn1nc(-c2cccc(O)c2)c2c(N)ncnc21 [MT15] | 200 nM | 930 nM |  |  |
| Cc1ccc(-c2nn(C(C)(C)C)c3ncnc(N)c23)cc1 [PP1, reference compound] |  |  |  | A549 cells in G2/M phase [8]: approximately 5.6%; cell killing in human lung cancer cell line A549 [3]: not; IC50 [2]: > 20000 nM; inhibition of CBR1 ([2]; at a concentration as high as 16 μM): did not inhibit; inhibition of CBR1 ([2]; in vitro assay, CBR1 expressed in bacteria): does not inhibit |
| CC(C)(C)n1nc(Cc2cccc(O)c2)c2c(N)ncnc21 [RB01] | 1200 nM | > 20000 nM |  |  |
| CC(C)n1nc(-c2cccc(O)c2)c2c(N)ncnc21 [RB02] | 11 nM | 1000 nM |  | killing of adenocarcinoma cells in culture [9]: kill adenocarcinoma cells in culture; CBR inhibition compared with AB129 [2]: comparable to AB129 |
| CC(C)(C)n1nc(Cc2ccc(O)cc2)c2c(N)ncnc21 [RB03] | ~20000 nM | > 20000 nM |  |  |
| CC(C)(C)n1nc(Cc2ccccc2O)c2c(N)ncnc21 [RB04] | 120 nM | > 20000 nM |  |  |
| CC(C)n1cc(-c2cccc(O)c2)c2c(N)ncnc21 [RB05, 3-(4-amino-7-isopropyl-7H-pyrrolo[2,3-d]pyrimidin-5-yl)-phenol] | 12 nM | 760 nM |  | killing of adenocarcinoma cells in culture [9]: kill adenocarcinoma cells in culture; CBR inhibition compared with AB129 [2]: comparable to AB129 |
| CNc1ncnc2c1c(-c1cccc(O)c1)cn2C(C)C [RB06] | 70000 nM | 590 nM |  | fold less potent as an inhibitor of Fyn ([1]; predicted, versus AB129): > 100 fold; CBR inhibition compared with AB129 [2]: equipotent |
| CNc1ncnc2c1c(-c1cccc(N)c1)cn2C(C)C [RB07, [5-(3-amino-phenyl)-7-isopropyl-7H-pyrrolo[2,3-d]pyrimidin-4-yl]-methyl-amine] |  | > 20000 nM |  |  |
| CC(C)n1cc(-c2cccc(O)c2)c2c(NCc3ccccc3)ncnc21 [RB08, 3-(4-benzylamino-7-isopropyl-7H-pyrrolo[2,3-d]pyrimidin-5-yl)-phenol] |  |  | 4400 nM | IC50 ([1]; read-out: anti-Fyn IC50): 20000 nM |
| CC(C)n1cc(-c2cccc(O)c2)c2c(N(Cc3ccccc3)Cc3ccccc3)ncnc21 [RB09, 3-(4-dibenzylamino-7-isopropyl-7H-pyrrolo[2,3-d]pyrimidin-5-yl)-phenol] |  | > 20000 nM |  |  |
| CNc1ncnc2c1c(-c1cccc(O)c1)cn2CCC(=O)OC(C)(C)C [RB10, tert-Butyl 3-(5-(3-hydroxyphenyl)-4-(methylamino)-4aH-pyrrolo[2,3-d]pyrimidin-7(7aH)-yl)propanoate] |  |  | 1150 nM |  |
| CNc1ncnc2c1c(-c1cccc(O)c1)cn2CCC(=O)O [RB11, 3-(5-(3-hydroxyphenyl)-4-(methylamino)-4aH-pyrrolo[2,3-d]pyrimidin-7(7aH)-yl)propanoic acid] |  |  | 220 nM |  |
| CNc1ncnc2c1c(-c1cc(O)cc(Br)c1)cn2C(C)C [SD1, 3-bromo-5-(7-isopropyl-4-methylamino-7H-pyrrolo[2,3-d]pyrimidin-5-yl)-phenol] |  |  | 220 nM |  |
| CNc1ncnc2c1c(-c1cc(C)cc(O)c1)cn2C(C)C [SD2, 3-(7-isopropyl-4-methylamino-7H-pyrrolo[2,3-d]pyrimidin-5-yl)-5-methyl-phenol] |  |  | 3040 nM |  |
| CNc1ncnc2c1c(-c1cc(O)cc(C(C)(C)C)c1)cn2C(C)C [SD3, 3-tert-Butyl-5-(7-isopropyl-4-methylamino-7H-pyrrolo[2,3-d]pyrimidin-5-yl)-phenol] |  |  | 7650 nM |  |
| CNc1ncnc2c1c(-c1cc(O)cc(C(F)(F)F)c1)cn2C(C)C [SD4, 3-(7-Isopropyl-4-methylamino-7H-pyrrolo[2,3-d]pyrimidin-5-yl)-5-trifluoromethyl-phenol] |  |  | 416 nM |  |
| CC(C)n1cc(-c2cc(O)cc(Br)c2)c2c(Cl)ncnc21 [SD5, 3-bromo-5-(4-chloro-7-isopropyl-7H-pyrrolo[2,3-d]pyrimidin-5-yl)-phenol] |  | 28 nM | 27 nM |  |
| Cc1cc(O)cc(-c2cn(C(C)C)c3ncnc(Cl)c23)c1 [SD6, 3-(4-chloro-7-isopropyl-7H-pyrrolo[2,3-d]pyrimidin-5-yl)-5-methyl-phenol] |  |  | 193 nM |  |
| CC(C)n1cc(-c2cc(O)cc(C(C)(C)C)c2)c2c(Cl)ncnc21 [SD7, 3-tert-butyl-5-(4-chloro-7-isopropyl-7H-pyrrolo[2,3-d]pyrimidin-5-yl)-phenol] |  |  | 376 nM |  |
| CC(C)n1cc(-c2cc(O)cc(C(F)(F)F)c2)c2c(Cl)ncnc21 [SD8, 3-(4-Chloro-7-isopropyl-7H-pyrrolo[2,3-d]pyrimidin-5-yl)-5-trifluoromethyl-phenol] |  |  | 67 nM |  |
| COc1cccc2c1C(=O)c1c(O)c3c(c(O)c1C2=O)C[C@@](O)(C(C)=O)C[C@@H]3O[C@H]1C[C@H](N)[C@H](O)[C@H](C)O1 [daunorubicin, reference compound] |  |  |  | loss of viability of A549 cells ([3]; daunorubicin single agent, 0.8 μM): 15% |
| CC1(C)[C@@H](O[C@H]2O[C@H](C(=O)O)[C@@H](O)[C@H](O)[C@H]2O[C@@H]2O[C@H](C(=O)O)[C@@H](O)[C@H](O)[C@H]2O)CC[C@]2(C)[C@H]3C(=O)C=C4[C@@H]5C[C@@](C)(C(=O)O)CC[C@]5(C)CC[C@@]4(C)[C@]3(C)CC[C@@H]12 [glycyrrhizic acid] |  |  |  | IC50 [10]: 40 nM |
